The source of these data is publication PMC6844273, “Platinum(IV) dihydroxido diazido N-(heterocyclic)imine complexes are potently photocytotoxic when irradiated with visible light” (Chemical Science, 2019).

In data set [1] the test system is A2780, A2780cis and OE19 cancer cell lines. The following applies: for IC50: read-out: IC50 in the absence of irradiation, dark, non-toxic defined as IC50 > 200 μM; for Dark toxicity: absence of irradiation, cell lines investigated. How it is done:
(§1) The novel trans-di-(N-heterocyclic)imine dihydroxido diazido Pt^IV complexes Pt^IV complexes were evaluated against human ovarian (A2780), cisplatin-resistant ovarian (A2780cis) and oesophageal (OE19) cancer cell lines, and the previously reported compounds (FM165 and 3) were also evaluated for comparison. […]
(§2) Maintenance. Human ovarian carcinoma (A2780), cisplatin-resistant ovarian carcinoma (A2780CIS) and oesophageal adenocarcinoma (OE19) cells were maintained in RPMI medium containing 10% Foetal Calf Serum (FCS). Cell lines were obtained from the European Collection of Animal Cell Cultures (ECACC). Cells were maintained in antibiotic-free medium in a humidified atmosphere of 95% air: 5% CO2 and subcultured every 7-10 days. Mycoplasma checks were done using the Hoechst staining method. Cells were seeded into dishes the night before experiments at a density of 6 - 7×10^4 cells.cm-2.
(§3) Experiments were carried out in an adapted laboratory with ambient light levels kept below 1 lux […]
(§4) Irradiation. Cells were irradiated by a bank of TL03 light sources (λmax 420 nm), filtered to attenuate wavelengths below 400 nm. Irradiances, dosimetry and calibrations were traceable to the National […]
(§5) Cells were irradiated in stirred suspension. Sham irradiated cells were treated identically to the test cells but were covered during irradiation.
(§6) Treatment. Test compounds were prepared in Earle’s Balanced Salt Solution (EBSS) and filtered immediately before use. Photofrin was used as the positive control for visible light irradiation. The positive and negative controls were included on each plate in parallel with the complexes. Cell viability […]
(§7) Cells were treated for 1 h at 37 °C/5% CO2 with EBSS containing the test compound, and then irradiated with 5 J.cm-2 visible radiation.
(§8) Phototoxic Index and Wavelength-Dependence. The phototoxic Index (PI) was determined 24 h after irradiation using the neutral red uptake assay;14 following cell uptake the neutral red dye accumulates in lysosomes, the low pH in the lysosomal matrix of live cells causes the dye to becomes charged, allowing it to be retained in this organelle.15 The dye was then extracted from the cells upon solubilisation and quantified. Protocol: a stock solution of neutral red was prepared in water (4 mg. mL-1) and diluted 80-fold in the cell culture medium (RPMI). Prior to addition to the cells, the solution was heated to 37 °C and filtered (no. 1 Whatman paper). The growth medium was removed from the cells, the neutral red dye (100 μL) was added and the cells are incubated for 3 hours in the dark. Upon removal of the dye, the cells were rinsed with PBS (100 μL) and then the plates were shaken for 15 min with […] for solubilisation. The dye concentration was quantified by measuring the absorbance at […]. An IC50 value was determined and is defined as the concentration required to inhibit dye uptake by 50%. This was done using non-linear regression (Graphpad Prism). Goodness of fit was determined from the R2 values of the curves and 95% confidence intervals. All cell experiments were performed in triplicate and repeated independently a minimum of two times.

Data set [2] can be described thus: Photodecomposition in H2O (loss of N3→Pt LMCT band) by UV-vis spectroscopy. The data set is classed as physicochemical. The following applies: 60 μM in H2O, blue light 463 nm, 57 mW cm^–2, UV-vis. How it is done: Solutions of the Pt^IV diazido complexes (60 μM, H2O) were irradiated with blue light (463 nm, 57 mW cm^–2). […] The data were fitted to y = y0 + Ae^Rox, with r^2 > 0.98 (Fig. 7).
Figure S2: Changes in UV-Vis spectra of the PtIV diazido complexes (60 μM in H2O) upon irradiation
Table S11. Decomposition half-lives of complexes (60 μM) when irradiated with blue (463 nm) light,
as measured by UV-Vis spectroscopy.
(1 picture or pasted object on this page, not shown here)

For data set [3], the system named is human ovarian (A2780) cancer cell line. Description: Phototoxicity / dark cytotoxicity, neutral red uptake assay, A2780. Particulars: for PI (phototoxic index): ratio of cytotoxicity following irradiation (420 nm) vs. in the dark. How it is done: as §1
(§9) controller and 3 UVA lamps (Hitachi, λmax = 361 nm) or 6 Luzchem LZC-420 lamps (λmax = 420 nm) with no other sources of light filtration, or LED light sources (BASETech model no. SP-GU10 230V~50 Hz […]
as §2, §3
(§10) Irradiation. Cells were irradiated by a bank of TL03 light sources (λmax 420 nm), filtered to attenuate wavelengths below 400 nm. Irradiances, dosimetry and calibrations were traceable to the National Physical Laboratory.12 Monochromatic light irradiation of the sample was performed using equipment consisting of a 1600W xenon arc light source and a grating monochromator. The apparatus was set to irradiate monochromatic light at 365, 400, 430, 500 and 530 nm. Filters were used to eliminate second order diffraction of shorter wavelengths from the specified longer wavelength monochromatic light.13 Cells were irradiated in stirred suspension. Sham irradiated cells were treated identically to the test cells but were covered during irradiation.
as §6, §7, §8

Data set [4] relates to cisplatin-resistant ovarian (A2780cis) cancer cell line. Description: Phototoxicity / dark cytotoxicity, neutral red uptake assay, A2780cis. The following applies: for PI (phototoxic index): ratio of cytotoxicity following irradiation (420 nm) vs. in the dark; for IC50: read-out: IC50 (phototoxicity), blue light 420 nm, 5 J cm^–2, TL03, filtered <400 nm. On the procedure: as §1, §2, §3, §4, §5, §6, §7, §8

The format of data set [5] is physicochemical. The following applies: water, 20 °C.
Data set [6] deals with human ovarian (A2780) cancer cell line. The following applies: cited from earlier work; for Dark toxicity: A2780, absence of irradiation; for IC50: read-out: IC50 (phototoxicity).
Data set [7] deals with cisplatin-resistant ovarian (A2780cis) cancer cell line. The following applies: read-out: IC50 (phototoxicity), cited from earlier work.
Data set [8] concerns oesophageal (OE19) cancer cell line. Description: Phototoxicity / dark cytotoxicity, neutral red uptake assay, OE19. Particulars: for PI (phototoxic index) / IC50: OE19; for PI (phototoxic index): ratio of cytotoxicity following irradiation (420 nm) vs. in the dark; for IC50: read-out: IC50 (phototoxicity), blue light 420 nm, 5 J cm^–2, TL03, filtered <400 nm. On the procedure: as §1, §9, §2, §3, §10, §6, §7, §8

Data set [9] shares this test system. More on the design: method as in PMID 23733242. Particulars: OE19, 420 nm irradiation; read-out: IC50 (phototoxicity); cited from earlier work.
Data set [10] concerns A2780, A2780cis and OE19 cancer cell lines. Details: method as in PMID 23733242. The following applies: dark; read-out: IC50 in the absence of irradiation; cited from earlier work.
Setting [11] is: read-out: IC50 (phototoxicity), A2780, blue light 420 nm, 5 J cm^–2, TL03, filtered <400 nm, 1 h treatment, read 24 h after irradiation.

For orientation: IC50 means the concentration at which inhibition is half-maximal.

“Also recorded” adds a separate entry of the source. Read-outs that look alike come from different tables or passages of the source. Marks after values point to notes of the source that are not given here.

“trans,trans,trans-[Pt(N3)2(OH)2(3-picoline)2] [Complex 23]”: the IC50 in data set [1] is greater than 200 µM; in data set [3] (setting [11]) it was 7.2 µM; in [4], 10.4 µM. In data set [2], the “Decomposition half-life t1/2” value worked out at 26 min. Further, the “PI (phototoxic index)” value in data set [3] (A2780) is greater than 27.8; in data set [4] it was greater than 19.3. The substance further gave a Maximum aqueous solubility in data set [5] of 3 mM.

Regarding “trans,trans,trans-[Pt(N3)2(OH)2(2-picoline)(pyridine)] [Complex 18]”, the “Phototoxicity, fold less phototoxic than 26” value in data set [3] (A2780, 420 nm) is listed as roughly 7 fold. Further, the “PI (phototoxic index)” value in data set [3] (A2780) was 7.3 ^d; in data set [4] it was 5.3 ^d. Moreover, the IC50 in data set [3] (setting [11]) was found to be 14.5 µM; in data set [4], 15.5 µM.

As for “trans,trans,trans-[Pt(N3)2(OH)2(NH3)(py)] [FM165, reference compound]”, the “PI (phototoxic index)” value in data set [3] (A2780) was greater than 9.6. For the same substance, the IC50 in data set [3] (setting [11]) is 25.4 µM; in [6] (A2780, visible light 420 nm), 25.4 µM. Besides, the “Dark toxicity” value in data set [6] is “non-toxic in the absence of irradiation”.

In the case of “trans,trans,trans-[Pt(OH)2(N3)2(py)2] [Complex 3, reference compound]”, the IC50 in [7] (UVA irradiation) was 14.5 µM; in data set [3] (setting [11]), 6.7 µM; in data set [6] (A2780, UVA irradiation), 1.4 µM; in data set [6] (A2780, visible light 420 nm) it was 6.7 µM; in data set [8], 8.4 µM. The “Decomposition half-life t1/2” value in data set [2] was 22 min. Also, the “PI (phototoxic index)” value in data set [3] (A2780) and in data set [8] was greater than 45 in each case. The “Dark toxicity” value in [6] is given as “non-toxic in the absence of irradiation”. In data set [5], this substance yielded a Maximum aqueous solubility of 34 mM.

With “trans,trans,trans-[Pt(N3)2(OH)2(thiazole)2] [Complex 29]”, the “Dark toxicity” value is “toxic towards cells in the absence of irradiation” in data set [1]; “some dark toxicity” in data set [3] (A2780, absence of irradiation); “no toxicity; also recorded: without any dark toxicity” in data set [4] (absence of irradiation); “no toxicity; also recorded: without any dark toxicity” in data set [8] (OE19, absence of irradiation). Moreover, the “Phototoxicity, fold greater than thiazole complex (tz, methylamine)” value in data set [1] (all three cell lines, 420 nm) is recorded as “at least 2 fold”. In data set [2], the “Decomposition half-life t1/2” value came to 17 min. Also, the IC50 turned out to be 2.4 µM in data set [3] (setting [11]); 115 µM in data set [3] (read-out: IC50 in the absence of irradiation, A2780, dark); 2.9 µM in [4]; 7.6 µM in data set [8]. The “PI (phototoxic index)” value is on record as greater than 71.0 in data set [4] and greater than 27 in data set [8]. The Maximum aqueous solubility in [5] is on record as 1 mM.

“trans,trans,trans-[Pt(N3)2(OH)2(3-picoline)(pyridine)] [Complex 19]”: the IC50 in [1] was greater than 200 µM; in [3] (setting [11]) it was 4 µM; in data set [4], 3.3 µM; in data set [8] it was 5.5 µM. Besides, the “PI (phototoxic index)” value is greater than 51.5 in [3] (A2780), greater than 71.0 in [4] and greater than 38 in data set [8].

Consider “trans,trans,trans-[Pt(N3)2(OH)2(NH2CH3)(thiazole)]”, for which the IC50 in data set [7] (420 nm irradiation) was 6.4 µM; in data set [9], 19.3 µM; in data set [6] (A2780, 420 nm irradiation), 28.2 µM; in [10], greater than 233 µM.

Regarding “trans,trans,trans-[Pt(N3)2(OH)2(4-picoline)2] [Complex 26]”, the IC50 in data set [1] was greater than 200 µM; in data set [3] (setting [11]), 2.1 µM; in [4] it was 4.1 µM; in data set [8], 8.2 µM. Further, the “Decomposition half-life t1/2” value in data set [2] worked out at 25 min.

Take “trans,trans,trans-[Pt(N3)2(OH)2(1-methylimidazole)2] [Complex 32]”: the “Dark toxicity” value in data set [1] was “non-toxic in the absence of irradiation”. Moreover, the values for the IC50 in data set [1], in data set [3] (setting [11]) and in data set [4] were greater than 200 µM, 56.3 µM and 164 µM, respectively. Besides, the entries for the “PI (phototoxic index)” value in data set [3] (A2780) and in [4] were greater than 3.7 and greater than 1.3, respectively. This substance came in with a Maximum aqueous solubility in [5] of 82 mM.

Regarding “trans,trans,trans-[Pt(N3)2(OH)2(4-picoline)(pyridine)] [Complex 20]”, the IC50 is greater than 200 µM in [1], 5.4 µM in data set [3] (setting [11]), 4.6 µM in data set [4] and 12.3 µM in data set [8]. The “Phototoxicity with green light” value is “no phototoxicity” in data set [3] (A2780, green light 515 nm) and “no phototoxicity” in data set [8] (OE19, green light 515 nm). Moreover, the “PI (phototoxic index)” value is reported as greater than 38 in data set [3] (A2780), greater than 45 in [4] and greater than 17 in data set [8].
